Measurements from ChEMBL document CHEMBL5634151, “Anti-adipogenic action of a novel oxazole derivative through activation of AMPK pathway” (Eur J Med Chem, 2023).
Active and inactive are the calls of the source. The calls are words filed in the database; no cut-off is given here.

Tests used:
3T3-L1 [1] = test: Induction of cell cycle arrest in MDI-cocktail differentiated mouse 3T3-L1 pre-adipocyte cells assessed as accumulation of cells at S phase at 3 to 5 uM incubated for 24 hrs by propidium iodide staining based flow cytometry analysis; assay type: functional; details: dose 3-5 µM
3T3-L1 [2] = test: Induction of cell cycle arrest in MDI-cocktail differentiated mouse 3T3-L1 pre-adipocyte cells assessed as reduction in cyclin D3 protein expression at 5 uM measured after 16 to 24 hrs by immunoblotting analysis; assay type: functional, cell-based; details: time 16-24 hrs
3T3-L1 [3] = test: Anti-adipogenic activity in MDI-cocktail differentiated mouse 3T3-L1 pre-adipocyte cells assessed as reduction in adipogenic differentiation at 5 uM measured after 0 to 5 days by Oil Red O staining based microscopic analysis; assay type: functional, cell-based; details: time 0-5 day
C3H 10T1/2 [4] = test: Anti-adipogenic activity in MDI-cocktail differentiated mouse C3H 10T1/2 cells assessed as reduction in adipogenic differentiation at 5 uM measured after 3 to 7 days by Oil Red O staining based microscopic analysis; assay type: functional, cell-based; details: time 3-7 day
3T3-L1 [5] = test: Inhibition of MDI-cocktail induced adipogenic differentiation in mouse 3T3-L1 pre-adipocyte cells assessed as reduction in FASN gene expression at 5 uM by qRT-PCR analysis; assay type: functional, cell-based
Syrian golden hamster [6] = test: Hepatoprotective activity in high-fat diet induced Syrian golden hamster model assessed as reduction in serum AST level at 25 to 50 mg/kg, po administered for 7 days; assay type: functional, organism-based; details: Mesocricetus auratus, dose 25-50 mg/kg, time 7.0 day
3T3-L1 [7] = test: Activation of AMPK pathway in mouse 3T3-L1 mature adipocyte cells assessed as reversal of 6-(4-(2-(piperidin-1-yl)ethoxy)phenyl)-3-(pyridin-4yl)pyrazolo[1,5-a]pyrimidine induced AMPK inhibition at 5 uM incubated for 24 hrs by immunoblotting analysis; assay type: cell-based; details: filed as activator
3T3-L1 [8] = test: Inhibition of MDI-cocktail induced adipogenic differentiation in mouse 3T3-L1 pre-adipocyte cells assessed as reduction in lipid bound stain absorbance at 0.5 to 25 uM by Oil Red O staining based microscopic analysis; assay type: functional, cell-based; details: dose 0.5-25 µM
3T3-L1 [9] = test: Cytotoxicity against mouse 3T3-L1 pre-adipocyte cells assessed as reduction in cell viability at 20 uM incubated for 48 hrs by MTT assay; assay type: toxicity, cell-based; details: 3t3-l1, 48 h
3T3-L1 [10] = test: Anti-adipogenic activity in MDI-cocktail differentiated mouse 3T3-L1 pre-adipocyte cells assessed as inhibition of adipogenesis at 0.1 uM by Oil Red O staining based microscopic analysis; assay type: functional, cell-based
C3H 10T1/2 [11] = test: Anti-adipogenic activity in MDI-cocktail differentiated mouse C3H 10T1/2 cells assessed as reduction in adipogenic differentiation at 5 uM measured after 5 to 7 days by Oil Red O staining based microscopic analysis; assay type: functional, cell-based; details: time 5-7 day
C3H 10T1/2 [12] = test: Anti-adipogenic activity in MDI-cocktail differentiated mouse C3H 10T1/2 cells assessed as reduction in adipogenic differentiation at 5 uM measured after 0 to 7 days by Oil Red O staining based microscopic analysis; assay type: functional, cell-based; details: time 0-7 day
Syrian golden hamster [13] = test: Anti-dyslipidaemic activity in high-fat diet induced Syrian golden hamster model assessed as assessed as reduction in serum total cholesterol level at 25 to 50 mg/kg, po administered for 7 days; assay type: functional, organism-based; details: Mesocricetus auratus, dose 25-50 mg/kg, time 7.0 day
3T3-L1 [14] = test: Activation of AMPK in mouse 3T3-L1 mature adipocytes assessed as increase in AMPK phosphorylation at Thr172 residue incubated for 24 hrs by Western blot analysis; assay type: cell-based; details: filed as activator, dose 1-5 µM
3T3-L1 [15] = test: Anti-adipogenic activity in MDI-cocktail differentiated mouse 3T3-L1 pre-adipocyte cells assessed as increase in AMPK phosphorylation at Thr172 residue at 5 uM measured for 3 to 7 days by immunoblotting analysis; assay type: functional, cell-based; details: time 3-7 day
Syrian golden hamster [16] = test: Anti-obesity activity in high-fat diet induced Syrian golden hamster model assessed as reduction in weight gain at 50 mg/kg, po administered for 7 days and measured daily; assay type: functional, organism-based; details: Mesocricetus auratus, time 7.0 day
Syrian golden hamster [17] = test: Anti-obesity activity in high-fat diet induced Syrian golden hamster model assessed as reduction in fat mass at 50 mg/kg, po administered for 7 days by 1H NMR spectroscopy-based Echo MRI system; assay type: functional, organism-based; details: Mesocricetus auratus, time 7.0 day
3T3-L1 [18] = test: Upregulation of CIII-UQCRC2 protein expression in mouse 3T3-L1 mature adipocytes at 1 to 5 uM incubated for 24 hrs by Western blot analysis; assay type: functional, cell-based; details: dose 1-5 µM
C3H 10T1/2 [19] = test: Anti-adipogenic activity in MDI-cocktail differentiated mouse C3H 10T1/2 cells assessed as reduction in adipogenic differentiation at 5 uM measured after 3 to 5 days by Oil Red O staining based microscopic analysis; assay type: functional, cell-based; details: time 3-5 day
3T3-L1 [20] = test: Cytotoxicity against mouse 3T3-L1 pre-adipocyte cells assessed as reduction in cell viability upto 50 uM incubated for 48 hrs by MTT assay; assay type: toxicity, cell-based; details: 3t3-l1, 48 h
3T3-L1 [21] = test: Inhibition of MDI-cocktail induced adipogenic differentiation in mouse 3T3-L1 pre-adipocyte cells assessed as reduction in C/EBPalpha protein expression at 0.5 to 5 uM by Western blot analysis; assay type: functional, cell-based; details: dose 0.5-5 µM
3T3-L1 [22] = test: Anti-adipogenic activity in MDI-cocktail differentiated mouse 3T3-L1 pre-adipocyte cells assessed as inhibition of adipogenesis at 20 uM by Oil Red O staining based microscopic analysis relative to control; assay type: functional
Syrian golden hamster [23] = test: Anti-obesity activity in high-fat diet induced Syrian golden hamster model assessed as rescue of normal liver weight at 25 to 50 mg/kg, po administered for 7 days; assay type: functional, organism-based; details: Mesocricetus auratus, dose 25-50 mg/kg, time 7.0 day
3T3-L1 [24] = test: Inhibition of MDI-cocktail induced mTOR phosphorylation at Ser2448 residue in mouse 3T3-L1 pre-adipocyte cells at 5 uM by immunoblotting analysis; assay type: cell-based
Syrian golden hamster [25] = test: Hepatoprotective activity in high-fat diet induced Syrian golden hamster model assessed as reduction in serum ALT level at 25 to 50 mg/kg, po administered for 7 days; assay type: functional, organism-based; details: Mesocricetus auratus, dose 25-50 mg/kg, time 7.0 day
Syrian golden hamster [26] = test: Anti-dyslipidaemic activity in high-fat diet induced Syrian golden hamster model assessed as assessed as reduction in serum triglyceride level at 25 to 50 mg/kg, po administered for 7 days; assay type: functional, organism-based; details: Mesocricetus auratus, dose 25-50 mg/kg, time 7.0 day
3T3-L1 [27] = test: Anti-adipogenic activity in MDI-cocktail differentiated mouse 3T3-L1 pre-adipocyte cells assessed as reduction in adipogenic differentiation at 5 uM measured after 0 to 7 days by Oil Red O staining based microscopic analysis; assay type: functional, cell-based; details: time 0-7 day
Syrian golden hamster [28] = test: Anti-dyslipidaemic activity in high-fat diet induced Syrian golden hamster model assessed as assessed as increase in serum HDL level at 25 to 50 mg/kg, po administered for 7 days; assay type: functional, organism-based; details: Mesocricetus auratus, dose 25-50 mg/kg, time 7.0 day
3T3-L1 [29] = test: Anti-adipogenic activity in MDI-cocktail differentiated mouse 3T3-L1 pre-adipocyte cells assessed as reduction in adipogenic differentiation at 5 uM measured after 3 to 7 days by Oil Red O staining based microscopic analysis; assay type: functional, cell-based; details: time 3-7 day
3T3-L1 [30] = test: Cytotoxicity against mouse 3T3-L1 pre-adipocyte cells assessed as reduction in cell viability >20 uM incubated for 48 hrs by MTT assay; assay type: toxicity, cell-based; details: 3t3-l1, 48 h
3T3-L1 [31] = test: Induction of cell cycle arrest in MDI-cocktail differentiated mouse 3T3-L1 pre-adipocyte cells assessed as reduction in CDK2 protein expression at 5 uM measured after 16 to 24 hrs by immunoblotting analysis; assay type: functional, cell-based; details: time 16-24 hrs
3T3-L1 [32] = test: Anti-adipogenic activity in MDI-cocktail differentiated mouse 3T3-L1 pre-adipocyte cells assessed as reduction in adipogenic differentiation at 5 uM measured after 5 to 7 days by Oil Red O staining based microscopic analysis; assay type: functional, cell-based; details: time 5-7 day

Q: Which Activity (3T3-L1 [1]) does the source give for `Cc1ccc(-c2cnc(-c3ccc[n+](Cc4cccc(C)c4)c3)o2)cc1.[Br-]` here?
A: The Activity was “Active”.

Q: And the Activity (3T3-L1 [2])?
A: Its Activity is “Active”.

Q: What about the Activity (3T3-L1 [3]) of the same molecule?
A: The Activity was “Active”.

Q: What about the Activity (C3H 10T1/2 [4]) of the same molecule?
A: The Activity was “Active”.

Q: And the inhibition (3T3-L1 [5])?
A: The inhibition was “Active”.

Q: What about the Activity (Syrian golden hamster [6]) of the same molecule?
A: Its Activity is “Active”.

Q: What about the Activity (3T3-L1 [7]) of the same molecule?
A: Its Activity is “Active”.

Q: And the inhibition (3T3-L1 [8])?
A: The inhibition was “Active”.

Q: And the Activity (3T3-L1 [9])?
A: The Activity was “Non-Toxic”.

Q: And the Activity (3T3-L1 [10])?
A: The Activity was “Active”.

Q: What about the Activity (C3H 10T1/2 [11]) of the same molecule?
A: Its Activity is “Active”.

Q: And the Activity (C3H 10T1/2 [12])?
A: The Activity was “Active”.

Q: And the Activity (Syrian golden hamster [13])?
A: The Activity was “Active”.

Q: What about the Activity (3T3-L1 [14]) of the same molecule?
A: Its Activity is “Dose-Dependent Effect”.

Q: And the Activity (3T3-L1 [15])?
A: Its Activity is “Active”.

Q: What about the Activity (Syrian golden hamster [16]) of the same molecule?
A: The Activity was “Active”.

Q: What about the Activity (Syrian golden hamster [17]) of the same molecule?
A: Its Activity is “Active”.

Q: What about the Activity (3T3-L1 [18]) of the same molecule?
A: Its Activity is “Active”.

Q: And the Activity (C3H 10T1/2 [19])?
A: The Activity was “Active”.

Q: What about the Activity (3T3-L1 [20]) of the same molecule?
A: The Activity was “Non-Toxic”.

Q: And the inhibition (3T3-L1 [21])?
A: Its inhibition is “Active”.

Q: What about the inhibition at 20 µM (3T3-L1 [22]) of the same molecule?
A: The inhibition at 20 µM was > 70%.

Q: What about the Activity (Syrian golden hamster [23]) of the same molecule?
A: Its Activity is “inactive”.

Q: And the inhibition (3T3-L1 [24])?
A: The inhibition was “Active”.

Q: And the Activity (Syrian golden hamster [25])?
A: Its Activity is “Active”.

Q: And the Activity (Syrian golden hamster [26])?
A: Its Activity is “Active”.

Q: And the Activity (3T3-L1 [27])?
A: The Activity was “Active”.

Q: And the Activity (Syrian golden hamster [28])?
A: Its Activity is “inactive”.

Q: And the Activity (3T3-L1 [29])?
A: The Activity was “Active”.

Q: What about the Activity (3T3-L1 [30]) of the same molecule?
A: The Activity was “Non-Toxic”.

Q: And the Activity (3T3-L1 [31])?
A: Its Activity is “Active”.

Q: And the Activity (3T3-L1 [32])?
A: The Activity was “Active”.
